In patent US20240368131A1, “OXOINDOLINYL AMIDE DERIVATIVES FOR INHIBITING NLRP3 AND USES THEREOF” (VENTUS THERAPEUTICS U.S. INC., priority 2022, published 2024) one finds IC50 data, which are given here for 28 compounds.

By IC50 is commonly meant the concentration needed to halve the response being measured. A high value points to weaker potency.

Molecules are shown by their SMILES.

Chain of human NLRP3 (Q96P20 whole entry): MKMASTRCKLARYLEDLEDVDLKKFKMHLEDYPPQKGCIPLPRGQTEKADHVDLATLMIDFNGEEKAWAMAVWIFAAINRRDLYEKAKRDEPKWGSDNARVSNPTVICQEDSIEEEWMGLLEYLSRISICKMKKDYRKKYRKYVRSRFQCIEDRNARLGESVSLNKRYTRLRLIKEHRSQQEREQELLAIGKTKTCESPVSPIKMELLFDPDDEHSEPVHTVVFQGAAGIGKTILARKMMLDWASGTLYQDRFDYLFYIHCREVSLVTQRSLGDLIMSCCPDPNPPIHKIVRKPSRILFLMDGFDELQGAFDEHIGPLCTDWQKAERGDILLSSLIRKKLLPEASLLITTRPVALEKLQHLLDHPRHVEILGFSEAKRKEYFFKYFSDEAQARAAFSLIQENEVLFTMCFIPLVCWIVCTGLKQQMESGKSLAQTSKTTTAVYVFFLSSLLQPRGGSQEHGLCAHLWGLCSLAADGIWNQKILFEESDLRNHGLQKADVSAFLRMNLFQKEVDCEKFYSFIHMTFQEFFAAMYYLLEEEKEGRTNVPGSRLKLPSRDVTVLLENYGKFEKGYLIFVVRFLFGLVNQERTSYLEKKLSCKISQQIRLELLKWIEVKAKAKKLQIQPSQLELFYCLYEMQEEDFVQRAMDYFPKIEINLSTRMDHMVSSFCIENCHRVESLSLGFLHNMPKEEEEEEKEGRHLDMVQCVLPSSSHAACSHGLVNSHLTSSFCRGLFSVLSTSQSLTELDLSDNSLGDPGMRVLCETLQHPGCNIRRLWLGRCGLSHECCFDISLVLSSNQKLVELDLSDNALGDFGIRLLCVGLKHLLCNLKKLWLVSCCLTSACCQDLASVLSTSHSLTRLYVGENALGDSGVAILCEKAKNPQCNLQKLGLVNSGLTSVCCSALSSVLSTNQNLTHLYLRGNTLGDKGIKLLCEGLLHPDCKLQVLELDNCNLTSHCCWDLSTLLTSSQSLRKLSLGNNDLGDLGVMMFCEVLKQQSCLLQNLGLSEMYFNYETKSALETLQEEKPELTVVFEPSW

One test has as its target human NLRP3 (Homo sapiens, UniProt Q96P20). Description: Human PBMC NLRP3 Assay (IL-1β release). It counts as cell-based. On the set-up: Human PBMCs (Normal): iXCells Cat #10HU-003; host or cells: human PBMCs (normal donors), LPS-primed, nigericin-stimulated. Particulars: human PBMCs, LPS priming 4 h, nigericin stimulation 1 h; class symbols. The method, then: Reagents: Human PBMCs (Normal): iXCells Cat #10HU-003; RPMI 1640 medium (ATCC modification): ThermoFisher Cat #A1049101 (Complete Media: 10% FBS, 1% Pen/Strep; Assay Media: 1% Pen/Strep; 75 cm^2 cell culture flask: Corning Cat #430641U; 96-well cell culture plates: VWR Cat #10062-900; LPS (E. coli 026:B6): Sigma Cat #L2654, stock 5 mg/mL in PBS; Nigericin sodium salt: Sigma Cat #N7143, stock 5 mg/mL (6.7 mM) in ethanol.
Cryopreserved PBMCs (10×10^6 cells/vial) were rapidly thawed in a 37° C. water bath for 2 min and transferred in 10 mL Complete Media. Cells were then centrifuged at 1200 RPM for 5 min, resuspended in 40 mL of Complete Media, transferred in a 75 cm^2 cell culture flask and incubated overnight at 37° C. with 5% CO2. The next day, PBMCs were centrifuged, resuspended in 30 mL Assay Media (˜3.3×10^5 cells/mL) and distributed at 100 μL/well in a 96-well cell culture plate. 50 μl of Assay Media containing 300 ng/ml of LPS was then added to each well except for the untreated control wells (50 μl Assay Media without LPS). Cells were then primed with LPS for 4 h at 37° C. with 5% CO2. A concentration response curve (CRC) was prepared of 500× test compound in 100% dimethyl sulfoxide (DMSO). The CRC was then diluted 1:25 in Assay Media and then further diluted 1:5 in Assay Media resulting in a final 4× CRC in 0.8% DMSO/Assay Media. 50 μL/well of 4× test compound CRC or vehicle (0.8% DMSO/Assay Media) was then transferred into each well and subsequently incubated for 30 min at 37° C. with 5% CO2. Cells were stimulated by adding 4 μL of 500 μM Nigericin, for 1 h at 37° C. with 5% CO2 Plates were then centrifuged at 1200 RPM for 5 min and 100 μl of the media was transferred to a clean 96-well storage plate and stored at −80° C. until analyzed. Cytokine measurements were performed using the mesoscale platform. Compounds were added 30 minutes before priming the cells with LPS when TNFα was required to be quantified in the cytokine panel to confirm selectivity.
Human PBMC NLRP3 Assay: A represents an IC50 value <0.3 μM; B represents an IC50 value ≥0.3 μM and <0.5 μM; C represents an IC50 value ≥0.5 μM and <1.0 μM; D represents an IC50 value >1.0 μM and <10 μM; E represents an IC50 value >10 μM.
Turning to `C[C@@H](CNC(=O)CN1C(=O)C(C)(C)c2cc(Br)cc(O)c21)CC(=O)O` (single isomer, unassigned) [42A*], the IC50 was < 300 nM.
Turning to `C[C@H](CNC(=O)CN1C(=O)C(C)(C)c2cc(Br)cc(O)c21)CC(=O)O` (single isomer, unassigned) [42B*], the concentration for half-maximal inhibition (IC50) is < 300 nM.
As for `CC1(C)C(=O)N(CC(=O)N[C@@H]2CCC[C@@H]2C(=O)O)c2ccc(Br)cc21` (single isomer, unassigned) [52A*], the IC50 is > 10000 nM.
Same read-out and setting: as for `O=C(O)CCCNC(=O)CN1C(=O)C2(CCCC2)c2cc(Br)ccc21` [Compound 5, 4-(2-(5′-bromo-2′-oxospiro[cyclopentane-1,3′-indolin]-1′-yl)acetamido)butanoic acid], the figure is > 10000 nM.
Still for that read-out and setting: as for `O=C(O)CCCNC(=O)CN1C(=O)C2(CC2)c2cc(Br)ccc21` [Compound 6, 4-(2-(5′-bromo-2′-oxospiro[cyclopropane-1,3′-indolin]-1′-yl)acetamido)butanoic acid], the figure is 500 to 1000 nM; as for `Cc1ccc2c(c1)C(C)(C)C(=O)N2CC(=O)NCCCC(=O)O` [Compound 7, 4-(2-(3,3,5-trimethyl-2-oxoindolin-1-yl)acetamido)butanoic acid], 1000 to 10000 nM; as for `CC(C)(CCC(=O)O)NC(=O)CN1C(=O)C(C)(C)c2cc(C(F)(F)F)ccc21` [Compound 8, 4-(2-(3,3-dimethyl-2-oxo-5-(trifluoromethyl)indolin-1-yl)acetamido)-4-methylpentanoic acid], 500 to 1000 nM.
`CC(C)(CCC(=O)O)NC(=O)CN1C(=O)C(C)(C)c2cc(C3CC3)ccc21` [Compound 9, 4-(2-(5-cyclopropyl-3,3-dimethyl-2-oxoindolin-1-yl)acetamido)-4-methylpentanoic acid] gave a concentration for half-maximal inhibition (IC50) of 500 to 1000 nM.
Consider `CC(C)c1ccc2c(c1)C(C)(C)C(=O)N2CC(=O)NC(C)(C)CCC(=O)O` [Compound 10, 4-(2-(5-isopropyl-3,3-dimethyl-2-oxoindolin-1-yl)acetamido)-4-methylpentanoic acid], for which the 50% inhibitory concentration (IC50) fell in the range of 300 to 500 nM.
Still for that read-out and setting: as for `CC(C)(CNC(=O)CN1C(=O)C(C)(C)c2cc(Br)ccc21)CC(=O)O` [Compound 13, 4-(2-(5-bromo-3,3-dimethyl-2-oxoindolin-1-yl)acetamido)-3,3-dimethylbutanoic acid], the figure is < 300 nM.
In turn, `CC(C)(CCNC(=O)CN1C(=O)C(C)(C)c2cc(Br)ccc21)C(=O)O` [Compound 14, 4-(2-(5-bromo-3,3-dimethyl-2-oxoindolin-1-yl)acetamido)-2,2-dimethylbutanoic acid] came in with a half-maximal inhibitory concentration (IC50) of 1000 to 10000 nM.
As to `CC1(C)C(=O)N(C2(C(=O)NCCCC(=O)O)CC2)c2ccc(Br)cc21` [Compound 15, 4-(1-(5-bromo-3,3-dimethyl-2-oxoindolin-1-yl)cyclopropane-1-carboxamido)butanoic acid], the IC50 is > 10000 nM.
Still for that read-out and setting: as for `CC1(C)C(=O)N(CC(=O)NCCCC(=O)O)c2cc(F)c(Br)cc21` [Compound 20, 4-(2-(5-bromo-6-fluoro-3,3-dimethyl-2-oxoindolin-1-yl)acetamido)butanoic acid], the figure is 1000 to 10000 nM.
Same read-out and setting: as for `CC1(C)C(=O)N(CC(=O)NCCCC(=O)O)c2ccc(C3CCCC3)cc21` [Compound 25, 4-(2-(5-cyclopentyl-3,3-dimethyl-2-oxoindolin-1-yl)acetamido)butanoic acid], the figure is > 10000 nM; as for `COc1cc(Br)cc2c1N(CC(=O)NCCCC(=O)O)C(=O)C2(C)C` [Compound 27, 4-(2-(5-bromo-7-methoxy-3,3-dimethyl-2-oxoindolin-1-yl)acetamido)butanoic acid], > 10000 nM.
The same measure, in the same setting: as for `CC1(C)C(=O)N(CC(=O)NCCCC(=O)O)c2cc(O)c(Br)cc21` [Compound 36, 4-(2-(5-bromo-6-hydroxy-3,3-dimethyl-2-oxoindolin-1-yl)acetamido)butanoic acid], the figure is > 10000 nM; as for `C[C@H](CCC(=O)O)NC(=O)CN1C(=O)C(C)(C)c2cc(Br)cc(O)c21` [Compound 41A, (R)-4-(2-(5-bromo-7-hydroxy-3,3-dimethyl-2-oxoindolin-1-yl)acetamido)pentanoic acid], < 300 nM.
Take `CC1(C)C(=O)N(CC(=O)NC2(CCC(=O)O)CC2)c2c(O)cc(Br)cc21` [Compound 44, 3-(1-(2-(5-bromo-7-hydroxy-3,3-dimethyl-2-oxoindolin-1-yl)acetamido)cyclopropyl)propanoic acid]: the IC50 was < 300 nM.
Consider `CC1(C)C(=O)N(CC(=O)NCc2ccccc2C(=O)O)c2ccc(Br)cc21` [Compound 49, 2-((2-(5-bromo-3,3-dimethyl-2-oxoindolin-1-yl)acetamido)methyl)benzoic acid], for which the IC50 was > 10000 nM.
On the same count and under the same terms, as for `CC1(C)C(=O)N(CC(=O)NCCCC(=O)O)c2c(C(F)(F)F)cc(Br)cc21` [Compound 50, 4-(2-(5-bromo-3,3-dimethyl-2-oxo-7-(trifluoromethyl)indolin-1-yl)acetamido)butanoic acid], the figure is > 10000 nM; as for `O=C(O)CCCNC(=O)CN1C(=O)C(F)(F)c2cc(Br)ccc21` [Compound 51, 4-(2-(5-bromo-3,3-difluoro-2-oxoindolin-1-yl)acetamido)butanoic acid], 300 to 500 nM.

Staying with this test, now noted: human PBMCs, LPS priming, nigericin stimulation; numeric values of Tables C1-C4.
As for `O=C(O)CCCNC(=O)Cn1ccc2ccccc21` [COMPARATIVE EXAMPLE 1, 4-(2-(1H-indol-1-yl)acetamido)butanoic acid, reference compound], the half-inhibitory concentration (IC50) is > 100000 nM.
Same read-out and setting: as for `O=C(O)CCCNC(=O)Cn1ccc2cc(Br)ccc21` [COMPARATIVE EXAMPLE 2, 4-(2-(5-bromo-1H-indol-1-yl)acetamido)butanoic acid, reference compound], the figure is 7200 nM.
Still for that read-out and setting: as for `O=C(O)CCCNC(=O)CN1C(=O)Cc2cc(Br)ccc21` [COMPARATIVE EXAMPLE 3, 4-(2-(5-bromo-2-oxoindolin-1-yl)acetamido)butanoic acid, reference compound], the figure is 47000 nM.
As to `O=C(O)CCCNC(=O)CN1C(=O)C(=O)c2cc(Br)ccc21` [COMPARATIVE EXAMPLE 4, 4-(2-(5-bromo-2,3-dioxoindolin-1-yl)acetamido)butanoic acid, reference compound], the IC50 was > 100000 nM.
The same measure, in the same setting: as for `O=C(O)CCNC(=O)Cn1ccc2cc(Br)ccc21` [COMPARATIVE EXAMPLE 5, 3-(2-(5-bromo-1H-indol-1-yl)acetamido)propanoic acid, reference compound], the figure is > 100000 nM; as for `CC1(C)C(=O)N(CC(=O)NCCCc2nnc[nH]2)c2c(F)cc(C3CC3)c(F)c21` [COMPARATIVE EXAMPLE 6, N-(3-(4H-1,2,4-triazol-3-yl)propyl)-2-(5-cyclopropyl-4,7-difluoro-3,3-dimethyl-2-oxoindolin-1-yl)acetamide, reference compound], 941 nM; as for `CC1(C)C(=O)N(CC(=O)NCCCc2cn[nH]n2)c2c(F)cc(C3CC3)c(F)c21` [COMPARATIVE EXAMPLE 7, N-(3-(2H-1,2,3-triazol-4-yl)propyl)-2-(5-cyclopropyl-4,7-difluoro-3,3-dimethyl-2-oxoindolin-1-yl)acetamide, reference compound], 676 nM.
The same measure, in the same setting: as for `O=C(O)CCCNC(=O)CN1C(=O)C2(CC2)c2cc(Br)ccc21` [Compound 6, 4-(2-(5′-bromo-2′-oxospiro[cyclopropane-1,3′-indolin]-1′-yl)acetamido)butanoic acid], the figure is 570 nM; as for `CC(C)(CCC(=O)O)NC(=O)CN1C(=O)C(C)(C)c2cc(C(F)(F)F)ccc21` [Compound 8, 4-(2-(3,3-dimethyl-2-oxo-5-(trifluoromethyl)indolin-1-yl)acetamido)-4-methylpentanoic acid], 690 nM.
On the same count and under the same terms, as for `CC(C)(CCC(=O)O)NC(=O)CN1C(=O)C(C)(C)c2cc(C3CC3)ccc21` [Compound 9, 4-(2-(5-cyclopropyl-3,3-dimethyl-2-oxoindolin-1-yl)acetamido)-4-methylpentanoic acid], the figure is 670 nM; as for `CC(C)(CNC(=O)CN1C(=O)C(C)(C)c2cc(Br)ccc21)CC(=O)O` [Compound 13, 4-(2-(5-bromo-3,3-dimethyl-2-oxoindolin-1-yl)acetamido)-3,3-dimethylbutanoic acid], 110 nM; as for `O=C(O)CCCNC(=O)CN1C(=O)C(F)(F)c2cc(Br)ccc21` [Compound 51, 4-(2-(5-bromo-3,3-difluoro-2-oxoindolin-1-yl)acetamido)butanoic acid], 410 nM.
